Assay results from patent US20170107407A1, “ADHESIVE COMPOSITION AND POLARIZING PLATE COMPRISING SAME” (DONGWOO FINE-CHEM CO., LTD., priority 2014, published 2017).

Experiment: Evaluation of solubility in methyl ethyl ketone
Conditions: 1 g compound in 100 g methyl ethyl ketone, shaken 1 hour, left 24 hours at room temperature, visual
Procedure: Each compound (1 g) listed in Table 1 and methyl ethyl ketone (MEK, 100 g) were added to a 250 ml bottle and covered with a cap to inhibit the volatilization of the solvent.

Solubility, ∘:
CCOCCOCCOCC(=O)[O-].[Li+] [Formula A]
CCCCOCCOCC(=O)[O-].[Na+] [Formula C]
CCOCCOCCOCC(=O)[O-].[Na+] [Formula B]
